Series [1] concerns HIV-1 infection of TZM-bl cells. The series is described as follows: HIV-1 infectivity enhancement assay, β-galactosidase luminescence. As to conditions: for Log10 Inf. rel. to EF-C: log10 of HIV-1 infection of TZM-bl cells relative to EF-C, Fig S15 source data, asymmetric std dev errors; for Rel-to EFC / n-fold to virus: Fig S8 panels B, D. In kind it is cell-based.
Series [2] is described as follows: Zeta-potential measurement. Type of series: physicochemical. As to conditions: for Zeta-pot. / mV: zeta potential of peptide, Fig S15 source data. In a few lines:
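In this measurement, peptides aggregated for a day at RT in phosphate-buffered saline (pH 7.4, 1 mg/mL) are diluted into 1 mM potassium chloride, and the electrophoretic mobility is translated into zeta potential by Smoluchowski's relation.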

Series [3] is described as follows: β-sheet content by ATR-FT-IR. Type of series: physicochemical. In a few lines: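 ATR FT-IR, diamond crystal, 64 scans, 2 cm^-1, on freeze-dried 1 mg/mL PNF; β-sheet per prior calculation. Fluorescamine CR: 3 kDa filter, DMSO redissolution, 20 min RT, ex 365/em 470 nm; values as n-fold enhancement over DMSO (set to 1).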
The format of series [4] is physicochemical. The conditions noted are these: STD prep.
[5] abbreviates: Feb2021, 1.3 µM value relative to virus only (0 µM).
Setting [6] is: Feb2021, log10 of infectivity relative to EF-C.
[7] abbreviates: Feb2021, n-fold infectivity relative to EF-C.
Where [8] appears, read: Feb2021, unrounded values of the 1.3 µM column.
[9] abbreviates: infectivity class (low / medium / high) of each library peptide, main list in c1-c6, same classes repeated in sub-lists of sequences containing the hydrophobicity/charge patterns P+,H0,P+,H0,P0,H0,P0, P+,H0,P0,H0,P0,H0,P0, P+,H0,P0,H0.
Setting [10] is: infectivity enhancement relative to EF-C.
Setting [11] is: infectivity n-fold relative to virus alone.
The mark [12] stands for this setting: Feb2021, Log10 of infectivity relative to EF-C.

Several values for one entry are separate records, joined by “and”; a condition that tells them apart may be missing. Equal values may be shown once. Read-outs that look alike come from different tables or passages of the source.

Consider CRFRVPF [CN8], for which, in series [1] (setting [5]), the “n-fold to virus (Feb2021)” value came out at 0.837. Also, in series [1] (setting [6]), the “Log10 of Rel to EFC (Feb2021)” value is given as -1.701. Further, the “Rel-to EFC (Feb-2021)” value in series [1] (setting [7]) is 0.01992. The “Absolute Infectivity / RLU /s (Feb2021)” value in series [1] (setting [8]) was 376.7 RLU /s. In addition, the infectivity entry in series [1] (setting [9]) is “low”. In addition, in series [1], the “Log10 Inf. rel. to EF-C” value is reported as -1.701. In series [2], the “Zeta category ( +1 = if > 4 mV;-1 = if < -4 mV; 0 = -4mV to 4 mV)” value (shortened to “Zeta category”) was 1 (+1 = if > 4 mV) and the “Zeta-pot. / mV” value amounted to 4.413 mV. For the same substance, in series [2] (mean, Std Zeta in next column), the “Zeta Pot. / mV” value amounted to 4.413 mV. Moreover, in series [3] (ATR-FT-IR), the “FTIR ß-sheet content/ %” value was 11.43%. The “TEM: 1= fibrils, 0= aggregates (micelle), 0.5 = aggregates and fibrils, -1 = nothing obersved, STD prep” value (from here on “TEM: 1= fibrils, 0= aggregates (micelle)”) in series [4] came to 0.
Consider CSISIQI [TM141], for which, in series [1] (setting [5]), the “n-fold to virus (Feb2021)” value turned out to be 2.35. For the same substance, the “Log10 of Rel to EFC (Feb2021)” value in series [1] (setting [6]) is -1.252. Also, the “Rel-to EFC (Feb-2021)” value in series [1] (setting [7]) came to 0.05593. In addition, in series [1] (setting [8]), the “Absolute Infectivity / RLU /s (Feb2021)” value came to 3087 RLU /s. For the same substance, in series [1] (setting [10]), the “Rel-to EFC” value was found to be 0.05593. In addition, the n-fold to virus in series [1] (setting [11]) was 2.35. For the same substance, the infectivity result in series [1] (infectivity class (low / medium / high) of the peptide in the sequence-pattern analysis, Fig. S22-A4, class limits not given) was “low”. The “Log10 Inf. rel. to EF-C” value in series [1] is -1.252. Also, in series [2], the “Zeta category” value was -1 (-1 = if < -4 mV) and the “Zeta-pot. / mV” value is -25.93 mV. Also, the “Zeta Pot. / mV” value in series [2] (mean, Std Zeta in next column) is -25.93 mV. Moreover, the “FTIR ß-sheet content/ %” value in series [3] (ATR-FT-IR) is 58.57%. Besides, the “TEM: 1= fibrils, 0= aggregates (micelle)” value in series [4] was 1.
Take HHHHKIKIKIKIYYYY [TM6]: in series [1] (setting [12]), the “Log10 of Rel to EFC (Feb2021)” value was -0.1685. In series [1] (Feb2021, figures match the 1.3 µM column), the “Absolute Infectivity / RLU /s (Feb2021)” value came out at 20713.33333 RLU /s. Besides, the “Rel-to EFC (Feb-2021)” value in series [1] (Feb2021, infectivity enhancement relative to EF-C) is reported as 0.6784; in series [1] (setting [7]), 0.6784. Further, in series [1] (Feb2021, infectivity relative to virus only), the “n-fold to virus (Feb2021)” value is on record as 28.5. Besides, in series [1] (setting [10]), the “Rel-to EFC” value was 0.6784. Further, in series [1] (setting [11]), the n-fold to virus was 28.5. Further, the infectivity result in series [1] (setting [9]) was “medium”. Further, the “Log10 Inf. rel. to EF-C” value in series [1] is given as -0.1685. The “Zeta Pot. / mV” value in series [2] turned out to be 13.2 mV; in series [2] (mean, Std Zeta in next column), 13.2 mV. Also, the “Zeta category” value in series [2] and in series [2] (category derived from the zeta potential) was 1 (+1 = if > 4 mV) in each case. The “Zeta-pot. / mV” value in series [2] came out at 13.2 mV. For the same substance, the “FTIR ß-sheet content/ %” value in series [3] (ATR-FT-IR) came out at 0%. For the same substance, in series [4], the “TEM: 1= fibrils, 0= aggregates (micelle)” value is 0.5.
With KAKAQA [JJA2 / TM153], the “n-fold to virus (Feb2021)” value in series [1] (setting [5]) was 0.7586; in series [1] (Feb2021 run, infectivity n-fold relative to virus alone), 0.7586. The “Log10 of Rel to EFC (Feb2021)” value is given as -1.743 in series [1] (setting [12]) and -1.743 in series [1] (Feb2021 run, log10 of infectivity relative to EF-C). For the same substance, the “Rel-to EFC (Feb-2021)” value is on record as 0.01805 in series [1] (Feb2021, n-fold enhancement relative to EF-C); 0.01805 in series [1] (setting [7]); 0.01805 in series [1] (Feb2021 run, n-fold infectivity relative to EF-C). Besides, the “Absolute Infectivity / RLU /s (Feb2021)” value in series [1] (setting [8]) is reported as 146.7 RLU /s. Moreover, the infectivity entry in series [1] (setting [9]) was “low”. Moreover, the “Log10 Inf. rel. to EF-C” value in series [1] is recorded as -1.743. The “Zeta category” value in series [2] and in series [2] (category from zeta potential) was -1 (-1 = if < -4 mV) each time. Further, the “Zeta Pot. / mV” value is -14.08 mV in series [2] (mean, Std Zeta in next column) and -14.08 mV in series [2] (mean, Std in separate column). In series [2], the “Zeta-pot. / mV” value is listed as -14.08 mV. The “FTIR ß-sheet content/ %” value in series [3] was 40.34%; in series [3] (ATR-FT-IR), 40% and 40.34%. The “TEM: 1= fibrils, 0= aggregates (micelle)” value in series [4] is given as 0.

For the origin of these results see article PMC10447463, “Data-mining unveils structure–property–activity correlation of viral infectivity enhancing self-assembling peptides” (Nature Communications, 2023).
